Consider 1 compound from patent US9120728B2, “Modulators of cortical dopaminergic- and NMDA-receptor-mediated glutamatergic neurotransmission” (INTEGRATIVE RESEARCH LABORATORIES SWEDEN AB, priority 2011, dated 2015).

In this assay the test system is DOPAC (3,4-dihydroxyphenylacetic acid) in the rat striatum. The assay is described as follows: Increase of DOPAC (3,4-dihydroxyphenylacetic acid) in the rat striatum after systemic administration. Type of assay: in vivo. Particulars: sc, estimated ED50 on increase of DOPAC in rat striatum, dose range 0-100 μmol/kg s.c., curve fitting. The source says:
The increased turnover of dopamine in the terminal areas of the ascending dopaminergic projections of the mammalian brain can be illustrated by measuring of changes in biochemical indices in the brain with the characteristic features of dopamine antagonists, e.g. producing increases in concentrations of dopamine metabolites such as 3,4-dihydroxyphenyl-acetic acid (DOPAC) in the striatum.
After the behavioural activity sessions, the rats are decapitated and their brains rapidly taken out and put on an ice-cold petri-dish. The limbic forebrain, the striatum, the frontal cortex and the remaining hemispheral parts of each rat are dissected and frozen. Each brain part is subsequently analyzed with respect to its content of monoamines and their metabolites.
The monoamine transmitter substances (NA (noradrenaline), DA (dopamine), 5-HT (serotonin)) as well as their amine (NM (normethanephrine), 3-MT (3-methoxytyramine)) and acid (DOPAC (3,4-dihydroxyphenylacetic acid), 5-HIAA (5-hydroxyindoleacetic acid), HVA (homovanillic acid)) metabolites are quantified in brain tissue homogenates by HPLC separations and electrochemical detection
The analytical method is based on two chromatographic separations dedicated for amines or acids. Two chromatographic systems share a common auto injector with a 10-port valve and two sample loops for simultaneous injection on the two systems. Both systems are equipped with a reverse phase column (Luna C18(2), dp 3 μm, 50×2 mm i.d., Phenomenex) and electrochemical detection is accomplished at two potentials on glassy carbon electrodes (MF-1000, Bioanalytical Systems, Inc.). The column effluent is passed via a T-connection to the detection cell or to a waste outlet. This is accomplished by two solenoid valves, which block either the waste or detector outlet. By preventing the chromatographic front from reaching the detector, better detection conditions are achieved. The aqueous mobile phase (0.4 ml/min) for the acid system contains citric acid 14 mM, sodium citrate 10 mM, MeOH 15% (v/v) and EDTA 0.1 mM. Detection potentials relative to Ag/AgCl reference are 0.45 and 0.60V. […] Detection potentials relative to Ag/AgCl reference are 0.45 and 0.65V.
ED50 value for the increase of DOPAC in striatum is calculated by curve fitting. The evaluation is based on 40 animals over the dose range 0, 3.7, 11, 33 and 100 μmol/kg s.c. in two combined experiments. The DOPAC levels are normalised to control and fitted by least square minimization to the function “End-(End-Control)/(1+(dose/ED50)^slope)”. The four parameters (Control, End, ED50 and Slope) are fitted with the restrictions: ED50>0, 0.5<Slope<3, 350<End<400% of control. To estimate confidence levels for the parameters, the fit is repeated 100 times with a random evenly distributed squared weight (0 to 1) for every measurement value. Presented ED50-ranges cover 95% of these values.

Take `CCCNCCOc1cc(F)cc(S(C)(=O)=O)c1` [Example 1, N-[2-(3-fluoro-5-methylsulfonyl-phenoxy)ethyl]propan-1-amine]: the ED50 (in general, the dose that gives a 50% effect, or the effect in half of the subjects) is 8.5 µmol/kg.
